We go through 16 compounds from US20150087627A1, “COMBINATION OF KINASE INHIBITORS AND USES THEREOF” (Intellikine LLC, priority 2011, published 2015).

SMILES strings stand for the structures. Read-outs that look alike come from different tables or passages of the source.

Common to all, as to type: biochemical
For one experiment, the target named is T1, PI3K β (p110β/p85α) (Homo sapiens, UniProt P42338).
T1 construct: purchased Upstate / Millipore Corporation
The experiment is described as follows: PI 3-Kinase (human) HTRF assay, PI3K β. The following applies: read-out: PI3K β IC50. Background: Time-resolved FRET reads energy transfer from a long-lived donor to a nearby acceptor.

Another experiment deals with T2, PI3K α (p110α/p85α) (Homo sapiens, UniProt P42336).
T2 construct: purchased Upstate / Millipore Corporation
The experiment is described as follows: PI 3-Kinase (human) HTRF assay, PI3K α. Particulars: read-out: PI3K α IC50.

The next experiment addresses T3, PI3K δ (Homo sapiens, UniProt O00329).
T3 construct: purchased Upstate / Millipore Corporation
Kind of experiment: PI 3-Kinase (human) HTRF assay, PI3K δ. Particulars: read-out: PI3K δ IC50.

Another experiment deals with T4, PI3K γ (p110γ) (Homo sapiens, UniProt P48736).
T4 construct: purchased Upstate / Millipore Corporation
Kind of experiment: PI 3-Kinase (human) HTRF assay, PI3K γ. Particulars: read-out: PI3K γ IC50.

T3 sequence (O00329 whole entry): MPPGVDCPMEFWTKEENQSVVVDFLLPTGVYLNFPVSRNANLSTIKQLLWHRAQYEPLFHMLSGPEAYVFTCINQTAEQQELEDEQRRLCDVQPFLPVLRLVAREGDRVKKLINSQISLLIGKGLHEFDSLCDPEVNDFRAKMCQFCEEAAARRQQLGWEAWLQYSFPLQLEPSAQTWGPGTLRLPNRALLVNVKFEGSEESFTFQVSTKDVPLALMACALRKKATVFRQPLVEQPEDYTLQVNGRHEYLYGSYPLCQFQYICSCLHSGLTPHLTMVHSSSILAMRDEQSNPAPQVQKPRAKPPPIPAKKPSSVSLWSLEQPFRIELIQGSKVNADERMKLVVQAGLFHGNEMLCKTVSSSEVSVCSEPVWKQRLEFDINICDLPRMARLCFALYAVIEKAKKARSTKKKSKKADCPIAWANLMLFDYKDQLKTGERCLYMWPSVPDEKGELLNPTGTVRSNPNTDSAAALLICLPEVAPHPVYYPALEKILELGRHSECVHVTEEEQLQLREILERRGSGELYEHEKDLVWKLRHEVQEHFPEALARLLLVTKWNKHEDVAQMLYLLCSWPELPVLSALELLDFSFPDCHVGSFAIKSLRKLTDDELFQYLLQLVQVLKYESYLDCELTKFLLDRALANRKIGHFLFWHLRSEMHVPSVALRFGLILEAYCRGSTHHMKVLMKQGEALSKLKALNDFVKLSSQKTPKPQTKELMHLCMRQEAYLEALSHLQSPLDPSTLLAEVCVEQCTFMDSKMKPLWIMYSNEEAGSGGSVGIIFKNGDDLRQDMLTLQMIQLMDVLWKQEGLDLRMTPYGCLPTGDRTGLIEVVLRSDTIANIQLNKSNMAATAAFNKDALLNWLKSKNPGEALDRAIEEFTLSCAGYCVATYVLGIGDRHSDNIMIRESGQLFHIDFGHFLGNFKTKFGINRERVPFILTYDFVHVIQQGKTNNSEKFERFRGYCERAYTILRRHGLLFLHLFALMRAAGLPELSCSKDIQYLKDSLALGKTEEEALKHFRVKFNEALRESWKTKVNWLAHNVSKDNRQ
T3 sequence (P27986 whole entry partner): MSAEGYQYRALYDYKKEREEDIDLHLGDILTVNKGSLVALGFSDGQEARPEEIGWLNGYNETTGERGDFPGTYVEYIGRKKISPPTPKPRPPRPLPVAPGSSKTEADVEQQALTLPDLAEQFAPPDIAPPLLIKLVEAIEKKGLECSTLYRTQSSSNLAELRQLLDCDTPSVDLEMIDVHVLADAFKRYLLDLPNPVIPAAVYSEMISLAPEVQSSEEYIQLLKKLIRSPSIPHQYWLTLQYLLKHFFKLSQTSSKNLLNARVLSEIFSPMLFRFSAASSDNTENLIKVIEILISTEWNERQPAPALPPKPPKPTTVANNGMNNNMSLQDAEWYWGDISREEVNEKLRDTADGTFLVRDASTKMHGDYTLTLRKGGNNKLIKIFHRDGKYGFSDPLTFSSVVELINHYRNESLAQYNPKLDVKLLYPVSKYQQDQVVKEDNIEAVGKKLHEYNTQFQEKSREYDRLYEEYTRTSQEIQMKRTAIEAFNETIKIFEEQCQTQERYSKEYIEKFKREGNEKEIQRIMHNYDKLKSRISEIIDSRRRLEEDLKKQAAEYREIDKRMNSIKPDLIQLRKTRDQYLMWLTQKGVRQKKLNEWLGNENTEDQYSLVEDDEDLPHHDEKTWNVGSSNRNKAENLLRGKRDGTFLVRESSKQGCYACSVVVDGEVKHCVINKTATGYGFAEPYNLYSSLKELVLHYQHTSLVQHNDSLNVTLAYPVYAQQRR
T1 sequence (P42338 whole entry): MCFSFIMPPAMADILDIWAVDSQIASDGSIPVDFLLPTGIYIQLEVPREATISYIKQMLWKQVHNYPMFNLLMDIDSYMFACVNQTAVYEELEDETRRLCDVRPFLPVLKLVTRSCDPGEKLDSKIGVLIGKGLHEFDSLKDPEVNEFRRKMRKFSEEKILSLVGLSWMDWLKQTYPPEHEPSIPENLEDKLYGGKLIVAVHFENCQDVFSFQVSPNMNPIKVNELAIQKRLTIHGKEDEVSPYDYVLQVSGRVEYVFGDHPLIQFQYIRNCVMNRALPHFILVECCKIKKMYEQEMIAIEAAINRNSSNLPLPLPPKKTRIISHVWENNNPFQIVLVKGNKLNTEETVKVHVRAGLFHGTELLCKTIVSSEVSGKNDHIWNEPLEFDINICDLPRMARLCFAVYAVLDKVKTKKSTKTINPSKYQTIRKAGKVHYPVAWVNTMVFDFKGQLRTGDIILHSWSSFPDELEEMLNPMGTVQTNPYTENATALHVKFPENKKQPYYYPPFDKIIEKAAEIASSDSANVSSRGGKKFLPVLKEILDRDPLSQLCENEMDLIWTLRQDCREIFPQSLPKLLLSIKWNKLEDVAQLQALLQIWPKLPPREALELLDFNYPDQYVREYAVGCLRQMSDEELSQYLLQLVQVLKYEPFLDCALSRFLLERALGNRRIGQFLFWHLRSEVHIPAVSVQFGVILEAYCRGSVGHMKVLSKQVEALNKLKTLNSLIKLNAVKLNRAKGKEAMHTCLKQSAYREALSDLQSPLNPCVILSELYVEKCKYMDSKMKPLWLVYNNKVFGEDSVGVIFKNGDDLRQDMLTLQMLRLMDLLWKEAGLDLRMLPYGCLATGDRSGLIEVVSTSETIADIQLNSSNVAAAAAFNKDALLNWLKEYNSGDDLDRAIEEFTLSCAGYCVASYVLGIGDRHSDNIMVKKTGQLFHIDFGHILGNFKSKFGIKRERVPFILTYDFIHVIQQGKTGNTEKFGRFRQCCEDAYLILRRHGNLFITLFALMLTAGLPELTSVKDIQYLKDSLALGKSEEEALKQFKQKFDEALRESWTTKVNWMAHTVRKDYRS
T1 sequence (P27986 whole entry partner): as the sequence (P27986 whole entry partner) above
T4 sequence (P48736 whole entry): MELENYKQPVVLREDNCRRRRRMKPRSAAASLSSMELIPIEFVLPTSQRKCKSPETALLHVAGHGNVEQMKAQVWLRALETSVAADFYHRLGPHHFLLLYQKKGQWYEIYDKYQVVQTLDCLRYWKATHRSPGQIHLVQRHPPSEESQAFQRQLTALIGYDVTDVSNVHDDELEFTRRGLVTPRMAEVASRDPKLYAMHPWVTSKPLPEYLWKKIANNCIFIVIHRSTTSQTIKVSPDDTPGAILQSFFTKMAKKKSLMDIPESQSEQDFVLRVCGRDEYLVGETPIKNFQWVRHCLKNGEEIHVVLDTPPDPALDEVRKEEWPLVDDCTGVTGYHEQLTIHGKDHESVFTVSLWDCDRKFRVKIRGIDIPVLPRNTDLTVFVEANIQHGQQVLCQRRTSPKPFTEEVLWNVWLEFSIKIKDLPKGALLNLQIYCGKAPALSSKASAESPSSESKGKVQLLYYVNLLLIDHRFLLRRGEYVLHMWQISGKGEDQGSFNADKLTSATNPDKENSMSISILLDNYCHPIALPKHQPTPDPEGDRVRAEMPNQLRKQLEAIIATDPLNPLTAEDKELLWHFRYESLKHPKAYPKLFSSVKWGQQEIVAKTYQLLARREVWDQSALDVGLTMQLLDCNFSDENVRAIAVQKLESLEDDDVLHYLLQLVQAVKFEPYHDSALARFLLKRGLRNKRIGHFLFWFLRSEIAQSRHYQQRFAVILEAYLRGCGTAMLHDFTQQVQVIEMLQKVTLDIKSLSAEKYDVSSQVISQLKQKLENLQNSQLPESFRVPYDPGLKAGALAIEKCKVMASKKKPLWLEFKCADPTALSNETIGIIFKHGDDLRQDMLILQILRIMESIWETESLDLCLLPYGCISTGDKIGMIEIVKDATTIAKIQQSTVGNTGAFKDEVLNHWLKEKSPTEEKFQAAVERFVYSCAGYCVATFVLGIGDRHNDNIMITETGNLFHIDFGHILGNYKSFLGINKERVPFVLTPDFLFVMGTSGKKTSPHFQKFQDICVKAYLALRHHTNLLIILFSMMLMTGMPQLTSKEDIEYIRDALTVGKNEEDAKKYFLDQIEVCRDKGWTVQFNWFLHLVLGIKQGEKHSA
T2 sequence (P42336 whole entry): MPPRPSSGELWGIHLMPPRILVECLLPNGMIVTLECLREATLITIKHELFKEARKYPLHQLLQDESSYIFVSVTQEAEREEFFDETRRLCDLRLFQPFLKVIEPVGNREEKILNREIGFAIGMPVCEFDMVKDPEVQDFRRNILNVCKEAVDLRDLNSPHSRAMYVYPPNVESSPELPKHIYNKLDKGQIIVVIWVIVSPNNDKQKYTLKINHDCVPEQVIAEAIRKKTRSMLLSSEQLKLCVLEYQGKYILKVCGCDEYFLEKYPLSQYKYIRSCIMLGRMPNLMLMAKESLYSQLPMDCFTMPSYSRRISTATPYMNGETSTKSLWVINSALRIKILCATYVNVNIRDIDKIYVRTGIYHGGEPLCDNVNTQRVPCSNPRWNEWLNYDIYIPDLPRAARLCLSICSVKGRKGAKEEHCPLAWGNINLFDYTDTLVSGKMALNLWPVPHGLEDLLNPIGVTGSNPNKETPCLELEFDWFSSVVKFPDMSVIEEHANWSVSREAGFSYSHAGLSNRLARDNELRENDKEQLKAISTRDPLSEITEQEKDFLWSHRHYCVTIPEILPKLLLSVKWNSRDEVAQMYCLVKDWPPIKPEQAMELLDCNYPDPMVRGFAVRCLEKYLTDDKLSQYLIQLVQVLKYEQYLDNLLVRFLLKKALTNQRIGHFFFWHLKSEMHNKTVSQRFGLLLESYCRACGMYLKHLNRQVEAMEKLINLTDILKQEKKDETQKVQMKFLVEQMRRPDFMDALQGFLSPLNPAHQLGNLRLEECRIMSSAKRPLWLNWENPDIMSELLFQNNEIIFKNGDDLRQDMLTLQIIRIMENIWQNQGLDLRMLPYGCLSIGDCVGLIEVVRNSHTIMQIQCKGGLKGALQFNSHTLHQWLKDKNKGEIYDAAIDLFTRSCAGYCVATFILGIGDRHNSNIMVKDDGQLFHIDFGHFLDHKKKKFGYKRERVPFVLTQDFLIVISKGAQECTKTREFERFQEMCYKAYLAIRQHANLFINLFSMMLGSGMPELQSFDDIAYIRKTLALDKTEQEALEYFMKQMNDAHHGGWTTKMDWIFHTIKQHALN
T2 sequence (P27986 whole entry partner): as the sequence (P27986 whole entry partner) above

In the case of `CS(=O)(=O)Nc1cccc(-c2ccc3ncc(C(=O)N4CCOCC4)n3c2)c1` [Compound 443], the IC50 on PI3K β (p110β/p85α), at PI3K α (p110α/p85α), at PI3K δ and on PI3K γ (p110γ) was greater than 10 µM each time.
On to `Nc1nc2cc(-c3ccc4ncn(C5CC5)c(=O)c4c3)ccc2o1` [Compound 254], for which the 50% inhibitory concentration (IC50) at PI3K β (p110β/p85α) was greater than 10 µM; at PI3K α (p110α/p85α), less than 1 µM; on PI3K δ it was greater than 10 µM; at PI3K γ (p110γ) it was less than 1 µM.
`CNC(=O)CN1CCN(c2cnc3ccc(-c4ccc5oc(N)nc5c4)cc3n2)CC1` [Compound 120]: the IC50 at PI3K β (p110β/p85α) is less than 1 µM; at PI3K α (p110α/p85α), less than 0.1 µM; at PI3K δ, less than 10 µM; on PI3K γ (p110γ), greater than 10 µM.
Regarding `CCN(CC)CC(=O)N1CCN(c2cnc3ccc(-c4ccc5oc(N)nc5c4)cc3n2)CC1` [Compound 279], the half-inhibitory concentration (IC50) on PI3K β (p110β/p85α) is less than 10 µM; at PI3K α (p110α/p85α), less than 0.1 µM; at PI3K δ, less than 10 µM; on PI3K γ (p110γ), less than 10 µM.
Take `Nc1cn2cc(-c3ccc4oc(N)nc4c3)ccc2n1` [Compound 245]: the IC50 at PI3K β (p110β/p85α) was less than 10 µM; on PI3K α (p110α/p85α) it was less than 1 µM; at PI3K δ, greater than 10 µM; on PI3K γ (p110γ), less than 1 µM.
As to `CS(=O)(=O)N1CCN(c2cnc3ccc(-c4ccc5oc(N)nc5c4)cc3n2)CC1` [Compound 86], the IC50 at PI3K β (p110β/p85α) was less than 1 µM; on PI3K α (p110α/p85α) it was less than 0.1 µM; on PI3K δ it was less than 1 µM; on PI3K γ (p110γ) it was less than 0.1 µM.
On to `Nc1nc2cc(-c3ccc4ncc(N5CCN(C(=O)C6(N)CC6)CC5)cc4n3)ccc2o1` [Compound 593], for which the IC50 at PI3K β (p110β/p85α) (Table 4 (PI3K α inhibitors)) was less than 1 µM; on PI3K α (p110α/p85α) (Table 4 (PI3K α inhibitors)), less than 0.1 µM; at PI3K δ (Table 4 (PI3K α inhibitors)), less than 1 µM; at PI3K γ (p110γ) (Table 4 (PI3K α inhibitors)) it was less than 0.1 µM.
Consider `CC(=O)Nc1nc(C)c(-c2ccc3oc(N)nc3c2)s1` [Compound 312], for which the IC50 is less than 10 µM on PI3K β (p110β/p85α), less than 1 µM on PI3K α (p110α/p85α), less than 1 µM at PI3K δ and less than 0.1 µM on PI3K γ (p110γ).
As to `Nc1nc2cc(-c3ccn4ncc(C(=O)N5CCC(N6CCOCC6)CC5)c4c3)ccc2o1` [Compound 398], the IC50 is less than 10 µM on PI3K β (p110β/p85α), less than 1 µM at PI3K α (p110α/p85α), less than 10 µM at PI3K δ and less than 10 µM on PI3K γ (p110γ).
For the compound `CCN1CCC(n2cnc3ccc(-c4ccc5oc(N)nc5c4)cc3c2=O)CC1` [Compound 73], the IC50 on PI3K β (p110β/p85α) was less than 10 µM; on PI3K α (p110α/p85α) it was less than 1 µM; at PI3K δ, greater than 10 µM; on PI3K γ (p110γ) it was greater than 10 µM.
On to `COc1ncc(-c2ccc3ncc(C(=O)N4CCOCC4)n3c2)cc1NS(=O)(=O)c1ccc(F)cc1` [Compound 421], for which the IC50 at PI3K β (p110β/p85α) is less than 1 µM; at PI3K α (p110α/p85α), less than 0.1 µM; on PI3K δ it was less than 0.1 µM; on PI3K γ (p110γ), less than 0.1 µM.
For the compound `Nc1nc2cc(-c3cn4c(C(=O)N5CCOCC5)cnc4cn3)ccc2o1` [Compound 122], the IC50 at PI3K β (p110β/p85α), on PI3K α (p110α/p85α), on PI3K δ and at PI3K γ (p110γ) was greater than 10 µM in each case.
With `Cc1ncccc1-c1cnc2ccc(-c3ccc4oc(N)nc4c3)cc2n1` [Compound 185], the IC50 was greater than 10 µM on PI3K β (p110β/p85α), less than 1 µM on PI3K α (p110α/p85α), greater than 10 µM at PI3K δ and greater than 10 µM on PI3K γ (p110γ).
Regarding `CN1CC(n2cnc3ccc(-c4ccc5oc(N)nc5c4)cc3c2=O)C1` [Compound 528], the IC50 was less than 10 µM on PI3K β (p110β/p85α), less than 1 µM on PI3K α (p110α/p85α), greater than 10 µM on PI3K δ and greater than 10 µM on PI3K γ (p110γ).
For `CC(C)N1CCC(n2cnc3ccc(-c4cncc(NS(=O)(=O)c5ccc(F)cc5F)c4)cc3c2=O)CC1` [Compound 519], the IC50 on PI3K β (p110β/p85α) is less than 10 µM; at PI3K α (p110α/p85α) it was less than 1 µM; at PI3K δ, less than 10 µM; on PI3K γ (p110γ), less than 1 µM.
Regarding `Nc1nc2cc(-c3ccc4ncc(-c5ccccc5)nc4c3)ccc2o1` [Compound 180], the IC50 is greater than 10 µM on PI3K β (p110β/p85α), less than 1 µM at PI3K α (p110α/p85α), greater than 10 µM on PI3K δ and greater than 10 µM at PI3K γ (p110γ).

One may read the IC50 as the midpoint of a concentration-inhibition curve.
